Data as given in the NIST ThermoML archive (doi:10.1016/j.jct.2008.05.010).
Numbers after ± are expanded uncertainties.

What was measured:
[1] = refractive index (Na D-line) (dimensionless); conditions: 298.15 K; 101.33 kPa; Liquid; Standard Abbe refractometry
[2] = 298.15 K; 101.33 kPa; Liquid

| refractive index [1] | mass density [2] [kg/m3] | Structure (SMILES) |
| --- | --- | --- |
| 1.4362 ± 0.0007 | 936.44 ± 0.13 | CC(=O)N(C)C [N,N-dimethylethanamide] |
| 1.4303 ± 0.0007 | 998.97 ± 0.39 | CNC=O [N-methylformamide] |
| 1.4771 ± 0.0007 | 1095.66 ± 0.15 | C[S+](C)[O-] [dimethyl sulfoxide] |
| 1.4279 ± 0.0007 | 943.87 ± 0.26 | CN(C)C=O [dimethylformamide] |
| 1.4463 ± 0.0007 | 1129.11 ± 0.4 | NC=O [formamide] |

| Structure (SMILES) | refractive index [1] | mass density [2] [kg/m3] |
| --- | --- | --- |
| CC(C)=O [acetone] | 1.3564 ± 0.0007 | 784.59 ± 0.24 |
